The values that follow come from patent US20150010917A1, “METHOD TO IDENTIFY LIGANDS FOR SIGMA-1 RECEPTORS” (LABORATORIOS DEL DR. ESTEVE S.A., priority 2012, published 2015).

In assay [1] the target is T1, σ1^spCFP/YFP construct expressed in HEK-293 cells (Homo sapiens, UniProt Q99720).
T1 construct: PTHR (PTH1R) signal peptide (N); expressed in transfected cells; host or cells: HEK-293 (stably transfected, G418 selected)
Nature of the assay: Single-cell real-time intramolecular FRET (iFRET) of the σ1 receptor FRET sensor. It is filed as cell-based. As to conditions: for change in the FRET signal of the σ1^spCFP/YFP: 100 μM, single HEK-293 cell, FIG. 3. The protocol:
In the single cell real time intramolecular-FRET approach both donor (i.e. CFP) and acceptor (i.e. YFP) are located in the same molecule, as designed for the σ1^CFP/YFP and the σ1^spCFP/YFP constructs (FIG. 1A). In brief, HEK cells permanently expressing the corresponding σ1 receptor FRET sensor were seeded in poly-D-Lysine coated coverslips and allow growing overnight. Then, the coverslips with transfected cells were mounted in an Attofluor holder and placed on an inverted Axio Observer microscope (Zeiss, Jena, Germany) equipped with a 63× oil immersion objective and a dual-emission photometry system (Till Photonics, Gräfelfing, Germany). The extracellular buffer was Hank's Balanced Salt Solution (HBSS), containing (in mM): 137 NaCl, 0.34 Na2HPO4, […], 0.44 KH2PO4, 0.5 MgCl2, 0.4 Mg2SO4, 1.26 CaCl2, 10 HEPES, 2 D-glucose and 1 ascorbic acid (pH 7.4 with NaOH).
A Polychrome V (Till Photonics) was used as the light source. The sample was illuminated with excitation light at 436±10 nm (beam splitter dichroic long-pass; DCLP 460 nm). Excitation time was 10 ms at 10 Hz, in order to limit photobleaching. Emission light intensities were determined at 535±15 and 480±20 nm (DCLP 505 nm). No corrections for spillover between channels or direct YFP excitation were made.
Single cells were selected for recording based on their σ1 expression as judged by its fluorescence. […] The ligands were applied using a pressure-driven, computer-controlled perfusion system (Octaflow; ALA Scientific Instruments, Westbury, N.Y., USA) and experiments were carried out at room temperature. Finally, a Digidata 1440 analog/digital converter (Molecular Devices, Sunnyvale, Calif., USA) was used for interfacing the photometry system and the perfusion system with a personal computer, which was used to control these systems and to record data. Finally, pCLAMP (Molecular Devices) and GraphPad Prism (GraphPad Software Inc., San Diego, Calif., USA) software were used for data collection and analysis.

A further assay relates to σ1^YFP and CFP. Briefly: Control experiments with coexpression of σ1^YFP and CFP. It is filed as cell-based, human. As to conditions: data not shown. The method, then: Next, we investigated whether σ1 challenge produced any rearrangements of the N- and C-terminal domains (i.e. conformational change) of the σ1 receptor by monitoring real time changes in the FRET efficiency. To this end, changes in the emission intensities of YFP (535 nm, yellow), CFP (480 nm, cyan) and the ratio F*535/F*480 (black) were recorded simultaneously from single cells after rapid superfusion with σ1 receptor ligands.

The target in a further assay is σ1 site (Homo sapiens, UniProt Q99720). As to conditions: cited from earlier work.
For a further assay, the target named is sigma-2 (σ2) site (Homo sapiens, UniProt Q5BJF2). As to conditions: cited from earlier work.
Chain of sigma-2 (σ2) site (Q5BJF2 whole entry): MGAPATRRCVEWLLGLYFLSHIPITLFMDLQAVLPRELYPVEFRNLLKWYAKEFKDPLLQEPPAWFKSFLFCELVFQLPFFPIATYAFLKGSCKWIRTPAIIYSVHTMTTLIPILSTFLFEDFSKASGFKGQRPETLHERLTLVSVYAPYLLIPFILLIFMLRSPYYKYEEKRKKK

On to `CC(C)=CCN1CCC2(C)c3cc(O)ccc3CC1C2C` (single isomer, unassigned; (+)) [(+)-Pentazocine], for which, in assay [1], the “change in the FRET signal of the σ1^spCFP/YFP” value (“change … of the σ1^spCFP/YFP” for short) is on record as “decrease”.

With `CCCN1CCC[C@H](c2cccc(O)c2)C1` [(+)-3-PPP], the “change … of the σ1^spCFP/YFP” value in assay [1] was “decrease”.

`COc1ccc2c(c1)[C@]13CCCC[C@@H]1[C@H](C2)N(C)CC3` [Dextromethorphan]: in assay [1], the “change … of the σ1^spCFP/YFP” value is reported as “decrease”.

As for `O=C(CCCN1CCC(O)(c2ccc(Cl)cc2)CC1)c1ccc(F)cc1` [Haloperidol], in the assay with σ1^YFP and CFP, the “FRET in the presence of ligand” value is listed as “no FRET”.

For `CCCN(CCC)CCc1ccc(OC)c(OCCc2ccccc2)c1` [NE-100], the “change … of the σ1^spCFP/YFP” value in assay [1] was “increase”.

For `O=C(OCCN1CCOCC1)C1(c2ccccc2)CCCCC1` [PRE-048], the “FRET in the presence of ligand” value in the assay with σ1^YFP and CFP is “no FRET”. The “delay before FRET change” value in assay [1] (100 μM ligand) is approximately 5 s. The “time constant τ of monoexponential time course of FRET change” value in assay [1] (100 μM ligand, n=3) worked out at 10.3 ± 0.3 s. Further, the “change in the F*535/F*480 ratio” value in assay [1] (100 μM ligand, rapid superfusion, single HEK-293 cells, FIG. 2D-E) was “rapid decrease”. The “change … of the σ1^spCFP/YFP” value in assay [1] was “decrease”.

Regarding `C=CCN1CC[C@]2(C)c3cc(O)ccc3C[C@H]1[C@H]2C` [SKF-10,047], the “affinity for the σ1 site” value on σ1 site is reported as “nanomolar affinity”. Also, at sigma-2 (σ2) site, the “affinity for the sigma-2 (σ2) site” value was “micromolar affinity”.
